# Experimental data: PMC7733455, “A novel multistage antiplasmodial inhibitor targeting Plasmodium falciparum histone deacetylase 1” (Cell Discovery, 2020)
# Where two headings read alike, the source gives them in different places.
# Legend:
# P. falciparum 3D7 = assay: 3-day SYBR Green I growth inhibition assay (GIA), strain 3D7; type: cell-based, Plasmodium falciparum; conditions: Plasmodium falciparum, 3D7, 72 h, read-out: Antiplasmodial activity EC50, 3D7
# Description: (§1) A 3-day SYBR Green I inhibition EC50 assay was performed as described previously. Briefly, highly synchronized ring-stage parasites by 5% sorbitol (1% parasitemia and 2% hematocrit) were incubated in a 96-well plate with compounds in a total volume of 200 μL. […] The parasites were cultured for 72 h before SYBR Green I staining as described above. The EC50 was calculated by GraphPad Prism. DHA was used as a positive control, and the final concentration of DMSO was 1%.
# P. falciparum Dd2 = assay: 3-day SYBR Green I GIA, multidrug-resistant strain Dd2; type: cell-based, Plasmodium falciparum
# Description: as §1
# [1] = In vitro cytotoxicity analysis (CellTiter-Glo), HepG2; conditions: human, HepG2 cells
# Description: (§2) In all, 1% DMSO was used as a negative control. The inhibition of each drug was normalized to that of the DMSO control. EC50 was calculated by GraphPad Prism. Three independent assays with two technical replicates each time were conducted in this experiment.
# HepG2 cells = assay: as above; conditions: read-out: Cytotoxicity EC50, HepG2; 72 h, CellTiter-Glo
# Description: as §2
# [2] = In vitro cytotoxicity analysis (CellTiter-Glo), 293T; conditions: human, 293T cells, Cytotoxicity EC50, 293T, 72 h, CellTiter-Glo
# Description: as §2
# 293T cells = assay: as above; conditions: read-out: Cytotoxicity EC50, 293T; 72 h, CellTiter-Glo
# Description: as §2
# [3] = Liver microsome metabolism assay, mouse; type: in vitro ADME
# Description: Liver microsomes (0.5 mg/mL) were purchased from Corning. Ketanserin was selected as a positive control. The tested compounds were first dissolved in DMSO to a concentration of 10 mM and then diluted to 0.5 mM with acetonitrile. Liver microsome buffer was used to dilute the compounds to a working concentration of 1.5 µM, 30 µL of which was mixed with 15 µL of 6 mM NADPH at 37 °C. At 0, 5, 15, 30, and 45 min after incubation, 135 µL of acetonitrile was added to quench the reaction. The mixture was shaken on a vortex mixer (IKA, MTS 2/4) for 10 min at 600 rpm/min and then centrifuged at 5594× g for 15 min (Thermo Multifuge×3R). The supernatant was diluted 1:1 into distilled water, and analyzed by LC-MS/MS.
# [4] = Pharmacokinetic assay in mice; type: in vivo, BALB/c mice; conditions: 5 mg/kg i.p.
# Description: Five female BALB/c mice (6–8 weeks, 18–19 g) per group were purchased from JH Laboratory Animal Co., Ltd. All mice were raised at controlled temperature and humidity and had free access to food and water. Compounds were dissolved in 5% DMSO and diluted with 20% aqueous 2-hydroxypropyl-β-cyclodextrin solution to a stock concentration of 0.5 mg/mL. Each mouse was i.p. injected with the compound solution at a dose of 5 mg/kg. Blood samples collected by anticoagulant (K2EDTA)-containing tubes at 0.25, 0.5, 1, 2, 4, 8, and 24 h after injection were centrifuged at 2000× g at 4 °C for 5 min to obtain plasma. LC-MS/MS analysis of samples was carried out by an ACQUITY UPLC HSS T3 1.8-μm column. The mobile phase was a mixture of phase A (0.1% formic acid in water) and phase B (0.1% formic acid in acetonitrile), which ran in gradient mode at a flow rate of 0.6 mL/min at 60 °C. Mass spectra were obtained on an API6500 triple quadrupole equipped with an ESI source. Propranolol was used as an internal standard. The plasma concentrations of the compounds were analyzed, and the pharmacokinetic parameters were calculated via WinNonlin.
# hSirt2 = target: T1, hSirt2 (Homo sapiens, UniProt Q8IXJ6); assay: Human HDAC inhibition assay, hSirt2; type: biochemical; conditions: performed only once; read-out: Inhibitory Activity IC50, hSirt2
# T1 construct: purchased BPS Bioscience 50013
# Description: SAHA and suramin were used as positive controls. The tested compounds were dissolved into 20 mM stock in 100% DMSO. […] Ten microliters of trypsin and Ac-peptide substrate/Tris buffer solution were added to start the reaction, followed by a 1-h incubation at room temperature for HDACs 1–3 and 6. Ten microliters of Ac-peptide substrate/Tris buffer solution was added to start the reaction, followed by a 4-h incubation at room temperature and a further 2-h incubation with trypsin solution for HDAC8 and Sirt 2. […] This experiment was performed only once.
# [5] = system: parasite histone H3 acetylation; assay: Western blot of histone H3 acetylation in parasites; type: cell-based, Plasmodium falciparum; conditions: 4 h treatment of asynchronous 3D7; quisinostat/JX21108 5 and 20 nM, SAHA 500 nM
# Description: Then the parasite samples were harvested and treated with 0.15% saponin to remove the RBC proteins and sonicated in 1% NP40 lysis buffer. After centrifugation at 12,000× g for 15 min, the supernatant was resuspended in a routine SDS loading buffer. Parasite proteins were separated by 10% SDS-PAGE and transferred onto PVDF membranes (Millipore). […] A2348) followed by a secondary antibody conjugated with HRP (Jackson Immuno Research Laboratories). The chemiluminescent HRP substrate Immobilon Western Kit (Millipore) was used for signal detection.
# [6] = system: asynchronous 3D7 parasites; assay: Time- and dose-dependent parasite inhibition assay; type: cell-based, Plasmodium falciparum
# Description: Asynchronous parasites (2% parasitemia, 4% hematocrit) were treated with the tested compounds at a concentration of 10, 30, 60, or 100 nM, respectively. At 3, 6, 12, and 24 h post treatment, parasitemia of each sample was detected by flow cytometry to investigate the time-dependent activity. Parasites from the same treatment were further washed to remove compounds, and parasitemia was diluted 1:40 by new RBCs into CM for an additional 4 days of culture. Parasitemia of each sample was detected by flow cytometry as described above to investigate the dose-dependent activity. DMSO was used as a blank control.
# P. yoelii = assay: In vivo efficacy of the five HDAC inhibitor hits in rodent malaria model (Fig. S1c); design: species or system Plasmodium yoelii in BALB/c mice; conditions: i.p., three mice per group
# Description: Fimepinostat Pinometostat
# Sodium Phenylbutyrate 500 50
# Givinostat hydrochloride monohydrate
# Supplementary Fig. S1 Screening of epigenetic inhibitors against blood-stage P. […]
# nM and 500 nM tested compounds compared to that with the DMSO control. b The EC50 values of five compounds against Pf3D7, HepG2 and 293T cells; SIa,EC 50 HepG2/ […]
# of P. yoelii in BALB/c mice. Three mice were used in each group. Parasitemia was calculated from at least 5,000 red blood cells (RBCs) by microscopy . Blank, untreated group; PPQ, piperaquine phosphate. The administration route was intraperitoneal (i.p.). The data of a and b are from three independent biological replicates in […]
# (also on this page, place not known: BET BromodominHDMHMT […] HDAC SI ±3.2 ±24 ±125 % Parasitemia microscopy. a) […]
# [7] = female, BALB/c, mouse, plasma, ip
# T1 sequence (Q8IXJ6 whole entry): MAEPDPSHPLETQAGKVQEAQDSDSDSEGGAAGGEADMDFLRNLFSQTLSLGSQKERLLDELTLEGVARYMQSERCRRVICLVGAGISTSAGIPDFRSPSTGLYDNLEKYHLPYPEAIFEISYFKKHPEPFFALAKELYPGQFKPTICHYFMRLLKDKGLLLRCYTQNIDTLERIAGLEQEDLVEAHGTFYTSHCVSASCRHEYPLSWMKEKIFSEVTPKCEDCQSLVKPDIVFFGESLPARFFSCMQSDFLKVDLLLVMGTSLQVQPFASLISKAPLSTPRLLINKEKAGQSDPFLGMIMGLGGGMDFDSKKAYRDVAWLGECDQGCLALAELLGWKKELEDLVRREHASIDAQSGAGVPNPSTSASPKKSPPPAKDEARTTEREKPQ
smiles,measurement,setting,value
"Cn1cc(CNCC2CCN(c3ncc(C(=O)NO)cn3)CC2)c2ccccc21 [Quisinostat, reference compound]",EC50,P. falciparum 3D7,5.2 ± 0.7 nM
same,EC50,"P. falciparum Dd2; Plasmodium falciparum, DD2, 72 h, read-out: Antiplasmodial activity EC50, Dd2, 3-day SYBR Green I GIA, multidrug-resistant strain Dd2",7.1 nM
same,EC50,"P. falciparum Dd2; read-out: Antiplasmodial activity EC50, Dd2, 3-day SYBR Green I GIA, multidrug-resistant strain Dd2",7.09 ± 0.01 nM
same,EC50 at 72 h,[1],48 nM
same,EC50,HepG2 cells,42 ± 10 nM
same,EC50 at 72 h,[2],42 nM
same,EC50,293T cells,48 ± 1 nM
same,T1/2 in liver microsomes,[3],13.31 min
same,half-life at 1 µM,"[3]; mouse, liver microsomes, read-out: T1/2 in liver microsomes",13.3 min
same,CL/F,[4],27.7 L/h/kg
same,Cmax,[4],88.7 ng/mL
same,Tmax,[4],4.98 min
same,V/F,[4],245 L/kg
same,plasma concentration,[4]; during 8–12 h after administration,~ 2.5 ng/mL
same,AUC(0-inf),[4]; [7],180 ng·h/mL
same,AUC(0-t),[4]; [7],157 ng·h/mL
same,half-life,[4]; [7],368 min
same,IC50,hSirt2,> 10 µM
same,pan-acetylation levels of parasite histone H3,[5],greatly increased the pan-acetylation levels of parasite histone H3
same,parasitemia measured 4 days after 6-h treatment,"[6]; 6-h treatment, washed, 1:40 dilution, 4 days culture",substantial reduction in parasitemia
same,asexual growth of 3D7 after 12- and 24-h treatments,"[6]; 10-100 nM, parasitemia immediately after treatment",significantly inhibited the asexual growth of 3D7 parasites
same,clearing of P. yoelii blood-stage infections,P. yoelii,remained effective in clearing P. yoelii blood-stage infections
